Our source for the IC50 values is US20230339970A1, “CASEIN KINASE 1 DELTA MODULATORS” (priority 2020, published 2023).

The target in experiment [1] is T1, human recombinant GST cleaved CSNK1D (Homo sapiens, UniProt P48730).
T1 construct: GST (cleaved yes); purchased University of Dundee clone DU 19064
Put plainly: Purified Enzyme Assay (ADP-Glo CSNK1D Kinase Assay). Format: biochemical. To be noted: 2 nM CSNK1D; peptide substrate 150 μM; ATP 20 μM; 45 minutes at room temperature. The procedure, abridged: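 Percent activity derived from ADP-Glo quantification of ADP produced. Reactions: compound dose-response with human recombinant GST-cleaved CSNK1D, ATP and substrate peptide PLSRTL-pS-VASLPGL, incubated 45 min at room temperature.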
On the technique in general: ADP-Glo first removes unused ATP, then detects ADP through luciferase.

The target of the next experiment is T2, human CSNK1D (Homo sapiens, UniProt P48730).
T2 construct: expressed in transfected cells
T2 sequence (P48730 whole entry): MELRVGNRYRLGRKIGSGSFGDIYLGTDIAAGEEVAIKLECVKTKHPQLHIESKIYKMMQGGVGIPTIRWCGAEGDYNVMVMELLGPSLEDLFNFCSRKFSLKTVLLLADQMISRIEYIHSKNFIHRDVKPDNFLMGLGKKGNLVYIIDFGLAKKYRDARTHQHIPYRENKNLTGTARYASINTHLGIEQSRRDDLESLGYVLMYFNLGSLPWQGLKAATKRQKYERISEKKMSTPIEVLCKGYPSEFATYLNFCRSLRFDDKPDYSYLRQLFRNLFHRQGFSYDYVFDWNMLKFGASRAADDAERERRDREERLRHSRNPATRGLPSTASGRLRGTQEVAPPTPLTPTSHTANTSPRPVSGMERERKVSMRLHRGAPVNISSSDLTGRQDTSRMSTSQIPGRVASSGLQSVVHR
Put plainly: Whole Cell nBRET CSNK1D Binding Assay. To be noted: living CHO cells stably expressing human CSNK1D tagged with nanoluciferase; NanoBret tracer 130 nM; 2 hours at 37 C.

Some results are limits rather than exact numbers.

T1 sequence (P48730 whole entry): as above

Turning to `CCC(=O)Nc1cc(-c2c(-c3ccc(F)cn3)nn3c2OCCC3)ccn1` [Example 439, N-(4-(2-(5-Fluoropyridin-2-yl)-6,7-dihydro-5H-pyrazolo[5,1-b][1,3]oxazin-3-yl)pyridin-2-yl)propionamide], the IC50 in experiment [1] worked out at 6 nM; on human CSNK1D, 75 nM.

`Cc1n[nH]c2nccc(-c3c(-c4ccc(F)cc4)nn4c3OCC3(C4)CC3(F)F)c12` (single isomer, unassigned) [Example 473, (*R)-2,2-Difluoro-2′-(4-fluorophenyl)-3′-(3-methyl-1H-pyrazolo[3,4-b]pyridin-4-yl)-5′H,7′H-spiro[cyclopropane-1,6′-pyrazolo[5,1-b][1,3]oxazine]]: the results for the IC50 (in experiment [1]; at human CSNK1D) were 2 nM and 6 nM, respectively.

Turning to `Fc1ccc(-c2nn3c(c2-c2ccnc4[nH]ncc24)OCC2(CC2)C3)cc1` [Example 457, 2′-(4-Fluorophenyl)-3′-(1H-pyrazolo[3,4-b]pyridin-4-yl)-5′H,7′H-spiro[cyclopropane-1,6′-pyrazolo[5,1-b][1,3]oxazine]], the values for the IC50 (in experiment [1]; at human CSNK1D) were 1 nM and 2 nM, respectively.

For `CC1(C)Cn2nc(-c3c(F)cncc3F)c(-c3ccnc4[nH]ncc34)c2CO1` [Example 165, 2-(3,5-Difluoropyridin-4-yl)-6,6-dimethyl-3-(1H-pyrazolo[3,4-b]pyridin-4-yl)-6,7-dihydro-4H-pyrazolo[5,1-c][1,4]oxazine], the figures for the IC50 (in experiment [1]; on human CSNK1D) were 15 nM and 702 nM, respectively.

Consider `CC1(O)COCc2c(-c3ccnc4[nH]ncc34)c(-c3ccc(F)cn3)nn2C1` (stereo not shown) [Example 484, 2-(5-Fluoropyridin-2-yl)-7-methyl-3-(1H-pyrazolo[3,4-b]pyridin-4-yl)-7,8-dihydro-4H,6H-pyrazolo[5,1-c][1,4]oxazepin-7-ol], for which the half-inhibitory concentration (IC50) was 231 nM in experiment [1] and over 10000 nM on human CSNK1D.

`CC1(CF)CCc2c(-c3cc(F)ncc3F)c(-c3ccc(F)cn3)nn2C1` (racemic) [Example 288, 3-(2,5-Difluoro-4-pyridyl)-6-(fluoromethyl)-2-(5-fluoro-2-pyridyl)-6-methyl-5,7-dihydro-4H-pyrazolo[1,5-a]pyridine]: the values for the IC50 (in experiment [1]; at human CSNK1D) were 238 nM and 4100 nM, respectively.

As for `Cc1cc(-c2c(-c3ccc(F)cn3)nn3c2CC(F)C3)c2cn[nH]c2n1` (stereo not shown) [Example 13, 4-(5-Fluoro-2-(5-fluoropyridin-2-yl)-5,6-dihydro-4H-pyrrolo[1,2-b]pyrazol-3-yl)-6-methyl-1H-pyrazolo[3,4-b]pyridine], the values for the half-inhibitory concentration (IC50) (in experiment [1]; at human CSNK1D) were 29 nM and 671 nM, respectively.

Turning to `Cc1cc(-c2c(-c3ccc(F)cc3)nn3c2C(C)(C)CC3)c2cn[nH]c2n1` [Example 246, 4-[2-(4-Fluorophenyl)-4,4-dimethyl-5,6-dihydropyrrolo[1,2-b]pyrazol-3-yl]-6-methyl-1H-pyrazolo[3,4-b]pyridine], the values for the concentration for half-maximal inhibition (IC50) (in experiment [1]; on human CSNK1D) were 5 nM and 58 nM, respectively.

Regarding `Fc1ccc(-c2nn3c(c2-c2ccnc4[nH]ncc24)CCC(F)(F)C3)nc1` [Example 44, 4-(6,6-Difluoro-2-(5-fluoropyridin-2-yl)-4,5,6,7-tetrahydropyrazolo[1,5-a]pyridin-3-yl)-1H-pyrazolo[3,4-b]pyridine], the half-inhibitory concentration (IC50) is 16 nM in experiment [1] and 296 nM at human CSNK1D.

As for `Fc1ccc(-c2nn3c(c2-c2ccnc4[nH]ncc24)OCCC3)cc1` [Example 184, 2-(4-Fluorophenyl)-3-(1H-pyrazolo[3,4-b]pyridin-4-yl)-6,7-dihydro-5H-pyrazolo[5,1-b][1,3]oxazine], the IC50 in experiment [1] was 2 nM; at human CSNK1D, 15 nM.

As for `C[C@@H]1C[C@H](C)n2nc(-c3ccc(F)cn3)c(-c3ccnc4[nH]ncc34)c2O1` (single isomer, unassigned) [Example 203, (5*R,7*S)-2-(5-Fluoro-2-pyridyl)-5,7-dimethyl-3-(1H-pyrazolo[3,4-b]pyridin-4-yl)-6,7-dihydro-5H-pyrazolo[5,1-b][1,3]oxazine], the values for the concentration for half-maximal inhibition (IC50) (in experiment [1]; at human CSNK1D) were 34 nM and 2890 nM, respectively.

In the case of `Fc1ccc(-c2nn3c(c2-c2ccnc4[nH]ncc24)OCCC3)nc1` [Example 186, 2-(5-Fluoropyridin-2-yl)-3-(1H-pyrazolo[3,4-b]pyridin-4-yl)-6,7-dihydro-5H-pyrazolo[5,1-b][1,3]oxazine], the IC50 turned out to be 9 nM in experiment [1] and 257 nM at human CSNK1D.

Consider `Cc1nc(-c2c(-c3ccc(F)cc3)nn3c2OCC(F)(F)C3)c2cn[nH]c2n1` [Example 469, 6,6-Difluoro-2-(4-fluorophenyl)-3-(6-methyl-1H-pyrazolo[3,4-d]pyrimidin-4-yl)-5,7-dihydropyrazolo[5,1-b][1,3]oxazine], for which the IC50 in experiment [1] worked out at 28 nM; at human CSNK1D, 385 nM.

`[2H]C([2H])([2H])[C@@]1(C([2H])([2H])F)CCc2c(-c3c(F)cnc4[nH]ncc34)c(-c3ccc(F)cn3)nn2C1` (single isomer, unassigned) [Example 294, (*R)-5-Fluoro-4-(6-(fluoromethyl-d2)-2-(5-fluoropyridin-2-yl)-6-(methyl-d3)-4,5,6,7-tetrahydropyrazolo[1,5-a]pyridin-3-yl)-1H-pyrazolo[3,4-b]pyridine]: the 50% inhibitory concentration (IC50) in experiment [1] was 2 nM; at human CSNK1D it was 23 nM.

Take `COC1(C)COCc2c(-c3ccnc4[nH]ncc34)c(-c3ccc(F)cn3)nn2C1` (single isomer, unassigned) [Example 486, (*R)-2-(5-Fluoropyridin-2-yl)-7-methoxy-7-methyl-3-(1H-pyrazolo[3,4-b]pyridin-4-yl)-7,8-dihydro-4H,6H-pyrazolo[5,1-c][1,4]oxazepine]: the results for the IC50 (in experiment [1]; at human CSNK1D) were 763 nM and over 10000 nM, respectively.

As for `Fc1ccc(-c2nn3c(c2-c2ccnc4[nH]ncc24)C2CC2C3)nc1` (racemic) [Example 23, 2-(5-Fluoropyridin-2-yl)-3-(1H-pyrazolo[3,4-b]pyridin-4-yl)-3b,4,4a,5-tetrahydrocyclopropa[3,4]pyrrolo[1,2-b]pyrazole], the concentration for half-maximal inhibition (IC50) in experiment [1] worked out at 3 nM; at human CSNK1D, 48 nM.

With `[2H]C([2H])([2H])C1(C([2H])([2H])[2H])CC(O)c2c(-c3ccnc4[nH]ncc34)c(-c3ccc(F)cn3)nn2C1` (stereo not shown) [Example 366, 2-(5-Fluoropyridin-2-yl)-6,6-bis(methyl-d3)-3-(1H-pyrazolo[3,4-b]pyridin-4-yl)-4,5,6,7-tetrahydropyrazolo[1,5-a]pyridin-4-ol], the IC50 in experiment [1] came out at 14 nM; at human CSNK1D it was 176 nM.

`CC1(C)COc2c(-c3ccnc4cc[nH]c34)c(-c3ccc(F)cc3)nn2C1` [Example 448, 2-(4-Fluorophenyl)-6,6-dimethyl-3-(1H-pyrrolo[3,2-b]pyridin-7-yl)-5,7-dihydropyrazolo[5,1-b][1,3]oxazine]: the 50% inhibitory concentration (IC50) stood at 28 nM in experiment [1] and 196 nM at human CSNK1D.

For `[2H]C([2H])([2H])C1(C([2H])([2H])[2H])Cn2nc(-c3ccc(F)cc3)c(-c3nc(C)nc4[nH]ncc34)c2CO1` [Example 410, 2-(4-Fluorophenyl)-6,6-bis(methyl-d3)-3-(6-methyl-1H-pyrazolo[3,4-d]pyrimidin-4-yl)-6,7-dihydro-4H-pyrazolo[5,1-c][1,4]oxazine], the IC50 in experiment [1] amounted to 2 nM; at human CSNK1D, 17 nM.

On to `Fc1ccc(-c2nn3c(c2-c2ccnc4[nH]ncc24)CC2(C3)CC2(F)F)cc1` (single isomer, unassigned) [Example 250, (*S)-1′,1′-Difluoro-2-(4-fluorophenyl)-3-(1H-pyrazolo[3,4-b]pyridin-4-yl)spiro[4,6-dihydropyrrolo[1,2-b]pyrazole-5,2′-cyclopropane]], for which the half-maximal inhibitory concentration (IC50) in experiment [1] was 1 nM; on human CSNK1D, 5 nM.

Turning to `Fc1ccc(-c2nn3c(c2-c2ccnc4[nH]ncc24)COC2(C3)CC2(F)F)nc1` (single isomer, unassigned) [Example 434, (*S)-1′. 1′-Difluoro-2-(5-fluoro-2-pyridyl)-3-(1H-pyrazolo[3,4-b]pyridin-4-yl)spiro[4,7-dihydropyrazolo[5,1-c][1,4]oxazine-6,2′-cyclopropane]], the concentration for half-maximal inhibition (IC50) in experiment [1] turned out to be 165 nM; at human CSNK1D it was 8290 nM.

With `CC(=O)Nc1cc(-c2c(-c3ccc(F)cn3)nn3c2CC[C@@H]2[C@H]3C2(F)F)ccn1` (stereo in doubt) [Example 352, N-(4-((5a*R,6a*S)-6,6-Difluoro-2-(5-fluoropyridin-2-yl)-5,5a,6,6a-tetrahydro-4H-cyclopropa[e]pyrazolo[1,5-a]pyridin-3-yl)pyridin-2-yl)acetamide], the values for the concentration for half-maximal inhibition (IC50) (in experiment [1]; on human CSNK1D) were 50 nM and 1300 nM, respectively.

Consider `Fc1ccc(-c2nn3c(c2-c2ccnc4cn[nH]c24)OCC(F)(F)C3)cc1` [Example 468, 6,6-Difluoro-2-(4-fluorophenyl)-3-(1H-pyrazolo[4,3-b]pyridin-7-yl)-5,7-dihydropyrazolo[5,1-b][1,3]oxazine], for which the half-maximal inhibitory concentration (IC50) was found to be 25 nM in experiment [1] and 187 nM at human CSNK1D.

For the compound `Cc1cc(-c2c(-c3ccc(F)cn3)nn3c2CCCC3)c2cn[nH]c2n1` [Example 36, 4-[2-(5-Fluoro-2-pyridyl)-4,5,6,7-tetrahydropyrazolo[1,5-a]pyridin-3-yl]-6-methyl-1H-pyrazolo[3,4-b]pyridine], the results for the half-maximal inhibitory concentration (IC50) (in experiment [1]; at human CSNK1D) were 6 nM and 133 nM, respectively.

Take `[2H]C([2H])([2H])[C@@]1(C(F)(F)F)Cn2nc(-c3ccc(F)cn3)c(-c3ccnc4[nH]ncc34)c2CO1` (single isomer, unassigned) [Example 424, (*S)-2-(5-Fluoropyridin-2-yl)-6-(methyl-d3)-3-(1H-pyrazolo[3,4-b]pyridin-4-yl)-6-(trifluoromethyl)-6,7-dihydro-4H-pyrazolo[5,1-c][1,4]oxazine]: the IC50 in experiment [1] came to 4 nM; on human CSNK1D it was 40 nM.

In the case of `Fc1ccc(-c2nn3c(c2-c2ccnc4[nH]ncc24)C[C@H](F)C3)cc1` [Example 11, (S)-4-(5-Fluoro-2-(4-fluorophenyl)-5,6-dihydro-4H-pyrrolo[1,2-b]pyrazol-3-yl)-1H-pyrazolo[3,4-b]pyridine], the IC50 is 1 nM in experiment [1] and 4 nM on human CSNK1D.

One may read the IC50 as the midpoint of a concentration-inhibition curve.
